# From patent US9822105B2, “Diaminotriazine compounds as herbicides” (BASF SE, priority 2014, dated 2017)
# Experiments:
# CHEAL = assay: Greenhouse test, post-emergence treatment; assay type: in vivo, Chenopodium album; settings: 0.0312 kg/ha
# Excerpt: (§1) The seeds of the test plants were sown separately for each species. For the post-emergence treatment, the test plants were first grown to a height of […], depending on the plant habit, and only then treated with the active ingredients which had been suspended or emulsified in water. For this purpose, the test plants were either sown directly and grown in the same containers, or they were first grown separately as seedlings and transplanted into the test containers a few days prior to treatment. Depending on the species, the plants were kept at 10-25° C. or 20-35° C., respectively. The test period extended over 2 to 4 weeks. During this time, the plants were tended, and their response to the individual treatments was evaluated. Evaluation was carried out using a scale from 0 to 100. 100 means no emergence of the plants, or complete destruction of at least the aerial moieties, and 0 means no damage, or normal course of growth. […] The plants used in the greenhouse experiments were of the following species: [table]
# BRSNW = assay: Greenhouse test, post-emergence treatment; assay type: in vivo, Winter rape; settings: 0.0312 kg/ha
# Excerpt: as §1
# AMARE [1] = assay: Greenhouse test, post-emergence treatment; assay type: in vivo, Amaranthus retroflexus
# Excerpt: as §1
# SETFA = assay: Greenhouse test, pre-emergence treatment; assay type: in vivo, Setaria faberi; settings: 0.5 kg/ha, SETFA
# Excerpt: (§2) The seeds of the test plants were sown separately for each species. For the pre-emergence treatment, the active ingredients, which had been suspended or emulsified in water, were applied directly after sowing by means of finely distributing nozzles. The containers were irrigated gently to promote germination and growth and subsequently covered with transparent plastic hoods until the plants had rooted. This cover caused uniform germination of the test plants, unless this had been impaired by the active ingredients. Depending on the species, the plants were kept at 10-25° C. or 20-35° C., respectively. The test period extended over 2 to 4 weeks. During this time, the plants were tended, and their response to the individual treatments was evaluated. Evaluation was carried out using a scale from 0 to 100. 100 means no emergence of the plants, or complete destruction of at least the aerial moieties, and 0 means no damage, or normal course of growth. […] The plants used in the greenhouse experiments were of the following species: [table]
# ALOMY = assay: Greenhouse test, pre-emergence treatment; assay type: in vivo, Alopecurus myosuroides
# Excerpt: as §2
# AMARE [2] = assay: Greenhouse test, pre-emergence treatment; assay type: in vivo, Amaranthus retroflexus
# Excerpt: as §2
# APESV = assay: Greenhouse test, pre-emergence treatment; assay type: in vivo, Apera spica-venti; settings: 250 g/ha
# Excerpt: as §2
# ABUTH = assay: Greenhouse test, post-emergence treatment; assay type: in vivo, Abutilon theophrasti
# Excerpt: as §1
# SETVI = assay: Greenhouse test, post-emergence treatment; assay type: in vivo, Setaria viridis; settings: 125 g/ha, STEVI
# Excerpt: as §1
# [3] = 500 g/ha, stated in words without grade
smiles,measurement,setting,value
"CC(C)(F)c1nc(N)nc(Nc2c(F)ccc3c2OCO3)n1 [Example 1, N2-(5-fluoro-1,3-benzodioxo1-4-yl)-6-(1-fluoro-1-methyl-ethyl)-1,3,5-triazine-2,4-diamine]",herbicidal activity,CHEAL,good (a good herbicidal activity is given at values of at least 70)
same,herbicidal activity,BRSNW,good (a good herbicidal activity is given at values of at least 70)
same,herbicidal activity,AMARE [1]; 0.0312 kg/ha,very good (a very good herbicidal activity is given at values of at least 85)
CC(C)(F)c1nc(N)nc(Nc2c(Br)ccc3c2OCO3)n1 [Example 3],herbicidal activity,SETFA,very good (a very good herbicidal activity is given at values of at least 85)
same,herbicidal activity,ALOMY; 0.5 kg/ha,very good (a very good herbicidal activity is given at values of at least 85)
same,herbicidal activity,AMARE [2]; 0.5 kg/ha,very good (a very good herbicidal activity is given at values of at least 85)
CC1(c2nc(N)nc(Nc3c(F)ccc4c3OCO4)n2)CCCCC1 [Example 6],herbicidal activity,APESV,very good (a very good herbicidal activity is given at values of at least 85)
same,herbicidal activity,ALOMY; 250 g/ha,good (a good herbicidal activity is given at values of at least 70)
same,pest or weed control at 250 g/ha,"AMARE [2]; Amaranthus retroflexus, read-out: herbicidal activity, 250 g/ha",≥ 70%
Nc1nc(Nc2c(F)ccc3c2OCO3)nc(N2CCC2)n1 [Example 18],herbicidal activity,ABUTH; [3],herbicidal activity
same,herbicidal activity,AMARE [1]; [3],herbicidal activity
Nc1nc(Nc2c(F)ccc3c2OCO3)nc(N2CCCCC2)n1 [Example 21],herbicidal activity,ABUTH; 500 g/ha,good (a good herbicidal activity is given at values of at least 70)
same,herbicidal activity,AMARE [1]; 500 g/ha,very good (a very good herbicidal activity is given at values of at least 85)
CC(C)(F)c1nc(N)nc(Nc2c(F)c(F)cc3c2OCO3)n1 [Example 30],herbicidal activity,SETVI,very good (a very good herbicidal activity is given at values of at least 85)
same,herbicidal activity,ABUTH; 125 g/ha,very good (a very good herbicidal activity is given at values of at least 85)
same,herbicidal activity,AMARE [1]; 125 g/ha,very good (a very good herbicidal activity is given at values of at least 85)
